Measurements as given in US11976083B2, “Inhibitors of peptidylarginine deiminases” (Gilead Sciences, Inc., priority 2020, dated 2024).
pIC50: −log10 of the molar value.

Target: T1, human PAD4 (Homo sapiens, UniProt Q9UM07)
T1 construct: human PAD4 (NM_012387), A2-P663, was PCR amplified; His-SUMO (N, cleaved yes); made in house; host or cells: E. coli BL21(DE3)
Experiment: In vitro PAD4 BAEE biochemical assay
Settings: BAEE substrate 3 mM, 5 nM PAD4, 2 mM calcium chloride; geometric mean of multiple experiments
Summary of the method: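 Recombinant human PAD4 (5 nM final) with 2 mM CaCl2 was preincubated with compound 30 min at 25 °C in MOPS buffer pH 7.6, then reacted with 3 mM BAEE for 2 h at 25 °C. After EDTA stop, released ammonia was detected by o-phthalaldehyde/DTT fluorescence (ex 405/em 535 nm); IC50 from four-parameter fit, geometric mean.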

T1 sequence (Q9UM07 2-663): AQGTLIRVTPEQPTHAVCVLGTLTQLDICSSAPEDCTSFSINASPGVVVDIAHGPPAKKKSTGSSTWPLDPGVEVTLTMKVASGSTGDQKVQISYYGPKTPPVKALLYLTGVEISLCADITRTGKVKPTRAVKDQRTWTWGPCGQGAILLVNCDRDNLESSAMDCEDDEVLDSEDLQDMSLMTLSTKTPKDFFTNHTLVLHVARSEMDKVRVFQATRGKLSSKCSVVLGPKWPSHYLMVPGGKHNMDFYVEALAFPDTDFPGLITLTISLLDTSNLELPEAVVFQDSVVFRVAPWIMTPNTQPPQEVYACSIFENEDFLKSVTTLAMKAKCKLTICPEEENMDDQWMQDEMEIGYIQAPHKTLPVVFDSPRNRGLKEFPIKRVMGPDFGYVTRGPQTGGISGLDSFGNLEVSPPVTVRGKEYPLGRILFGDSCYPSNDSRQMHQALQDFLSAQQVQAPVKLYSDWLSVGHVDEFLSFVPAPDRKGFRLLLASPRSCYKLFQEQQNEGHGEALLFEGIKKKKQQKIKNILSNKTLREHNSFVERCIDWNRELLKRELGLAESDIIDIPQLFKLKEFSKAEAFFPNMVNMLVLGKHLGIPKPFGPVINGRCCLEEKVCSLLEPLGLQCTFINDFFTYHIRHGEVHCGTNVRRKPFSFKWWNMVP

| Compound | pIC50 |
| --- | --- |
| CO[C@@H]1CCN(C(=O)c2cc(F)c3c(c2)nc(-c2cc4ccc5nc4n2CCCCCc2nc(Cl)ccc2C(=O)N[C@@H]5C)n3C2CC2)C[C@@H]1N [Example 789, (2~{R})-17-[5-[(3~{S},4~{R})-3-amino-4-methoxy-piperidine-1-carbonyl]-1-cyclopropyl-7-fluoro-benzimidazol-2-yl]-8-chloro-2-methyl-3,9,16,22-tetrazatetracyclo[14.5.2.0^ {5,10}.0^{19,23}]tricosa-1(21),5(10),6,8,17,19,22-heptaen-4-one] | 7.66 |
| C[C@@H]1[C@H](N)CCCN1C(=O)c1cc(F)c2c(c1)nc(-c1cc3ccc4nc3n1CCCCCc1nc(Cl)ccc1C(=O)N[C@@H]4C)n2C1CC1 [Example 790, (2~{R})-17-[5-[(2~{R},3~{R})-3-amino-2-methyl-piperidine-1-carbonyl]-1-cyclopropyl-7-fluoro-benzimidazol-2-yl]-8-chloro-2-methyl-3,9,16,22-tetrazatetracyclo[14.5.2.0^ {5,10}.0^{19,23}]tricosa-1(21),5(10),6,8,17,19,22-heptaen-4-one] | 7.64 |
| C[C@H]1NC(=O)c2ccc(Cl)nc2CCCCCn2c(-c3nc4cc(C(=O)N5C[C@H](N)C[C@@H](F)C5)cc(F)c4n3C3CC3)cc3ccc1nc32 [Example 791, (2~{R})-17-[5-[(3~{R},5~{R})-3-amino-5-fluoro-piperidine-1-carbonyl]-1-cyclopropyl-7-fluoro-benzimidazol-2-yl]-8-chloro-2-methyl-3,9,16,22-tetrazatetracyclo[14.5.2.0^ {5,10}.0^{19,23}]tricosa-1(21),5(10),6,8,17,19,22-heptaen-4-one] | 7.77 |
| COc1cc(C(=O)N2C[C@H](N)C[C@@H](F)[C@@H]2C)cc2nc(-c3cc4ccc5nc4n3CC(F)(F)CCCC3C[C@H]3C(=O)N[C@@H]5C)n(C)c12 (some centres unmarked) [Example 792, (2~{R},5~{R),7~{R})-14-[5-[(2~{S),3~{R},5~{R})-5-amino-3-fluoro-2-methyl-piperidine-1-carbonyl]-7-methoxy-1-methyl-benzimidazol-2-yl]-11,11-difluoro-2-methyl-3,13,19-triazatetracyclo [11.5.2.0^{5,7}.0^{16,20}] icosa-1(18),14,16,19-tetraen-4-one] | 6.47 |
| COc1cc(C(=O)N2CCC[C@@H](N)[C@H]2C)cc2nc(-c3cc4ccc5nc4n3CCCCCc3nc4ccsc4cc3C(=O)N[C@@H]5C)n(C)c12 [Example 793, (2~{R})-20-[5-[(2~{R},3~{R})-3-amino-2-methyl-piperidine-1-carbonyl]-7-methoxy-1-methyl-benzimidazol-2-yl]-2-methyl-8-thia-3,12,19,25-tetrazapentacyclo[17.5.2.0^ {5,13}.0^{7,11}.0^{22,26}] hexacosa-1(24),5(13),6,9, 11,20,22,25-octaen-4-one] | 7.62 |
| COc1cc(C(=O)N2C[C@H](N)C[C@@H](F)C2)cc2nc(-c3cc4ccc5nc4n3CCCCCc3nc4ccsc4cc3C(=O)N[C@@H]5C)n(C)c12 [Example 794, (2~{R})-20-[5-[(3~{R},5~{R})-3-amino-5-fluoro-piperidine-1-carbonyl]-7-methoxy-1-methyl-benzimidazol-2-yl]-2-methyl-8-thia-3,12,19,25-tetrazapentacyclo[17.5.2.0^ {5,13}.0^{7,11).0^{22,26}] hexacosa-1(24),5(13), 6,9,11,20,22,25-octaen-4-one] | 7.74 |
| COc1cc(C(=O)N2C[C@H](N)C[C@@H](F)[C@@H]2C)cc2nc(-c3cc4ccc5nc4n3CCCCCCC(C)(C)C(=O)N[C@@H]5C)n(C)c12 [Example 795, (11~{R})-17-[5-[(2~{S),3~{R},5~ {R})-5-amino-3-fluoro-2-methyl-piperidine-1-carbonyl]-7-methoxy-1-methyl-benzimidazol-2-yl]-8,8,11-trimethyl-1,10,19-triazatricyclo[10.5.2.0^ {15,18}]nonadeca-12,14,16,18-tetraen-9-one] | 6.18 |
| C[C@@H]1[C@H](N)CCCN1C(=O)c1cc(F)c2c(c1)nc(-c1cc3ccc4nc3n1CCCCCc1nc3ccsc3cc1C(=O)N[C@@H]4C)n2C1CC1 [Example 796, (2~{R})-20-[5-[(2~{R},3~{R})-3-amino-2-methyl-piperidine-1-carbonyl]-1-cyclopropyl-7-fluoro-benzimidazol-2-yl]-2-methyl-8-thia-3,12,19,25-tetrazapentacyclo[17.5.2.0^ {5,13}.0^{7,11).0^{22,26}] hexacosa-1(24),5(13), 6,9,11,20,22,25-octaen-4-one] | 8.30 |
| CO[C@@H]1CCN(C(=O)c2cc(F)c3c(c2)nc(-c2cc4ccc5nc4n2CCCCCc2nc4ccsc4cc2C(=O)N[C@@H]5C)n3C2CC2)C[C@@H]1N [Example 797, (2~{R})-20-[5-[(3~{S},4~{R})-3-amino-4-methoxy-piperidine-1-carbonyl]-1-cyclopropyl-7-fluoro-benzimidazol-2-yl]-2-methyl-8-thia-3,12,19,25-tetrazapentacyclo[17.5.2.0^ {5,13}.0^{7,11}.0^{22,26}] hexacosa-1(24),5(13), 6,9,11,20,22,25-octaen-4-one] | 7.80 |
| C[C@H]1NC(=O)c2ccc(Cl)nc2CCCCCn2c(-c3nc4cc(C(=O)N5C[C@H]6CC[C@@H]5[C@@H]6N)cc(F)c4n3C3CC3)cc3ccc1nc32 [Example 798, (2~{R})-17-[5-[(1~{R},4~{R}, 7~{R})-7-amino-2-azabicyclo [2.2.1]heptane-2-carbonyl]-1-cyclopropyl-7-fluoro-benzimidazol-2-yl]-8-chloro-2-methyl-3,9,16,22-tetrazatetracyclo[14.5.2.0^ {5,10}.0^{19,23}]tricosa-1(21),5(10),6,8,17,19,22-heptaen-4-one] | 7.77 |
| COc1cc(C(=O)N2CCC[C@@H](N)[C@H]2C)cc2nc(-c3cc4ccc5nc4n3CCCCCCC3(COC3)C(=O)N[C@@H]5C)n(C)c12 [Example 799, (11~{R})-17-[5-[(2~{R},3~{R})-3-amino-2-methyl-piperidine-1-carbonyl]-7-methoxy-1-methyl-benzimidazol-2-yl]-11-methyl-spiro[1,10,19-triazatricyclo[10.5.2.0^ {15,18}]nonadeca-12,14,16,18-tetraene-8,3′-oxetane]-9-one] | 7.92 |
| COc1cc(C(=O)N2C[C@@H](O)C[C@@H](N)[C@H]2C)cc2nc(-c3cc4ccc5nc4n3CCCCCCC(C)(C)C(=O)N[C@@H]5C)n(C)c12 [Example 800, (11~{R})-17-[5-[(2~{R},3~{R}, 5~{S})-3-amino-5-hydroxy-2-methyl-piperidine-1-carbonyl]-7-methoxy-1-methyl-benzimidazol-2-yl]-8,8,11-trimethyl-1,10,19-triazatricyclo [10.5.2.0^{15,18}]nonadeca-12,14,16,18-tetraen-9-one] | 7.13 |
| COc1cc(C(=O)N2C[C@@H]3NCCO[C@@H]3C[C@@H]2C)cc2nc(-c3cc4ccc5nc4n3CC(F)(F)CCC[C@@H]3C[C@H]3C(=O)N[C@@H]5C)n(C)c12 [Example 801, (2~{R},5~{R},7~{R})-14-[5-[(4~{a}~{S),7~{S},8~{a}~ {R})-7-methyl-2,3,4,4~{a}, 5,7,8,8~{a}-octahydropyrido [4,3-b][1,4]oxazine-6-carbonyl]-7-methoxy-1-methyl-benzimidazol-2-yl]-11,11-difluoro-2-methyl-3,13,19-triazatetracyclo[11.5.2.0^ {5,7}.0^{16,20}]icosa-1(18),14,16,19-tetraen-4-one] | 6.48 |
| CO[C@H]1C[C@@H]1n1c(-c2cc3ccc4nc3n2CC(F)(F)CCC[C@@H]2C[C@H]2C(=O)N[C@@H]4C)nc2cc(C(=O)N3CCC[C@@H](N)[C@H]3C)cc(F)c21 [Example 802, (2~{R},5~{R},7~{R})-14-[5-[(2~{R},3~{R})-3-amino-2-methyl-piperidine-1-carbonyl]-7-fluoro-1-[(1~{S},2~{S})-2-methoxycyclopropyl]benzimidazol-2-yl]-11,11-difluoro-2-methyl-3,13,19-triazatetracyclo [11.5.2.0^{5,7}.0^{16,20}] icosa-1(18),14,16,19-tetraen-4-one] | 7.66 |
| COc1cc(C(=O)N2CC[C@H]3OCCN[C@H]3C2)cc2nc(-c3cc4ccc5nc4n3CC(F)(F)CCC[C@@H]3C[C@H]3C(=O)N[C@@H]5C)n(C)c12 [Example 803, (2~{R},5~{R},7~{R})-14-[5-[(4~{a}~{S},8~{a}~{R})-2,3,4,4~{a},5,7,8,8~{a}-octahydropyrido[4,3-b][1,4]oxazine-6-carbonyl]-7-methoxy-1-methyl-benzimidazol-2-yl]-11,11-difluoro-2-methyl-3,13,19-triazatetracyclo[11.5.2.0^ {5,7}.0^{16,20}]icosa-1(18),14,16,19-tetraen-4-one] | 6.93 |
| CO[C@H]1C[C@@H]1n1c(-c2cc3ccc4nc3n2CC(F)(F)CCC[C@@H]2C[C@H]2C(=O)N[C@@H]4C)nc2cc(C(=O)N3C[C@H]4CC[C@@H]3[C@@H]4N)cc(F)c21 [Example 804, (2~{R},5~{R},7~{R})-14-[5-[(1~{R},4~{R},7~{R})-7-amino-2-azabicyclo[2.2.1]heptane-2-carbonyl]-7-fluoro-1-[(1~{S},2~{S})-2-methoxycyclopropyl]benzimidazol-2-yl]-11,11-difluoro-2-methyl-3,13,19-triazatetracyclo[11.5.2.0^ {5,7}.0^{16,20}]icosa-1(18),14,16,19-tetraen-4-one] | 7.57 |
| C[C@@H]1[C@H](N)CCCN1C(=O)c1cc(Cl)c2c(c1)nc(-c1cc3ccc4nc3n1CC(F)(F)CCC[C@@H]1C[C@H]1C(=O)N[C@@H]4C)n2C1CC1 [Example 805, (2~{R},5~{R},7~{R})-14-[5-[(2~{R},3~{R})-3-amino-2-methyl-piperidine-1-carbonyl]-7-chloro-1-cyclopropyl-benzimidazol-2-yl]-11,11-difluoro-2-methyl-3,13,19-triazatetracyclo[11.5.2.0^ {5,7}.0^{16,20}]icosa-1(18),14,16,19-tetraen-4-one] | 8.22 |
